One data set deals with HCT116 cells. Description: HCT116 Cell Titer Glow assay (CTG). Conditions: for viability at 1000 µM: read-out: CTG % cell viability 1000 uM HCT116.20, HCT116 cells, 72 hours, 1000 uM; for viability at 1000 µM / CTG % cell viability 1000 uM HCT116.20: percent cells remaining after treatment; for IC50: read-out: CTG IC50 (nM) Cell Line: HCT116.20.
A further data set concerns IPC298 cells. Briefly: IPC298 Cell Titer Glow assay (CTG). Conditions: for viability at 100 µM: read-out: CTG % cell viability 100 uM IPC298.2, IPC298 cells, 72 hours, 100 uM; for IC50: read-out: CTG IC50 (nM) Cell Line: IPC298.2. Background: Cellular ATP, detected with luciferase, serves as a proxy for viable cell number.
Setting [1] is: Homo sapiens, IPC-298, 72 h, percent cells remaining after treatment.

“And” between values parts separate entries of the source, which are not always exact repeats. Equal entries are not always repeated. Where two headings read alike, the source gives them in different places.

Protocol for HCT116 cells: HCT116 and IPC298 Cell Titer Glow Assay (CTG)
HCT116 cells and IPC298 cells were diluted with culture medium to the desired density 500 cells/well and 40 μL of cell suspension were added into each well of 384-well cell culture plate. […] The plates were covered and stored at room temperature for 30 minutes without shaking and then the plates were transferred into a 37° C. 5% CO2 incubator overnight.
A 10 mM solution in dimethyl sulfoxide (DMSO) was prepared for each test compound. A 3 fold, 10-point dilution was prepared from the stock solution. 40 nl of each solution in 100% DMSO was added to the 384-well plate and diluted to a final 0.1% DMSO final concentration. The plates were then incubated for 72 hours (for both cell lines) at 37° C.
CellTiter-Glo® 2.0 Reagent (Promega, G9242) was removed from the refrigerator and equilibrated at room temperature (23° C.) for 60 minutes. The plates were then removed from the incubator and allowed to equilibrate to room temperature. 30 μL CellTiter-Glo® 2.0 Reagent were added to the assay plates, and spun 1 min/1000 rpm. The plates were allowed to stand for about 20 minutes before being read on Envision using a standard luminescence readout. DMSO was employed as negative control (High control, HC) and 1 uM Staurosporine was employed as positive control (Low control, LC).
The percent (%) inhibition at each concentration of compound was calculated based on the signal in the negative and positive control wells contained within each assay plate.

In general, viability refers to a per cent measure of how many cells are alive, often set against a control. Usually IC50 stands for the concentration that inhibits the measured activity by half. `CNS(=O)(=O)Nc1nccc(Cc2cncc(OC3CCC(C)CC3)c2C)c1F` (single isomer, unassigned) [Example 74, 3-fluoro-4-[[4-methyl-5-(4-methylcyclohexoxy)-3-pyridyl]methyl]-N-(methylsulfamoyl)pyridin-2-amine]: in the data set on HCT116 cells (Homo sapiens, HCT-116, 72 h), the viability at 1000 µM was 92.9% and the IC50 was over 1000 nM. Further, the viability at 100 µM in the data set with IPC298 cells (setting [1]) was 88.6%. Moreover, in the data set on IPC298 cells (Homo sapiens, IPC-298, 72 h), the IC50 was over 1000 nM.
With `CNS(=O)(=O)N1CCc2c(Cc3cncc(Nc4ccc(Cl)cc4F)c3C)ccnc21` [Example 43, 4-({5-[(4-chloro-2-fluorophenyl)amino]-4-methylpyridin-3-yl}methyl)-N-methyl-2H,3H-pyrrolo[2,3-b]pyridine-1-sulfonamide], the IC50 in the data set with HCT116 cells (Homo sapiens, HCT-116, 72 h) was 10 to 100 nM; with IPC298 cells (Homo sapiens, IPC-298, 72 h), under 10 nM.
Regarding `CNS(=O)(=O)Nc1nccc(Cc2cncc(-c3ccc(Cl)cc3F)c2C)c1F` [Example 44, [(4-{[5-(4-chloro-2-fluorophenyl)-4-methylpyridin-3-yl]methyl}-3-fluoropyridin-2-yl)sulfamoyl](methyl)amine], the viability at 1000 µM in the data set on HCT116 cells (Homo sapiens, HCT-116, 72 h) was found to be 28%. In addition, the IC50 in the data set with HCT116 cells (Homo sapiens, HCT-116, 72 h) is over 1000 nM; in the data set with IPC298 cells (Homo sapiens, IPC-298, 72 h) it was 10 to 100 nM.
As to `CNS(=O)(=O)Nc1nccc(Cc2cncc(Nc3ccc(Cl)cc3F)c2C)c1OC` [Example 45, 4-[[5-(4-chloro-2-fluoro-anilino)-4-methyl-3-pyridyl]methyl]-3-methoxy-N-(methylsulfamoyl)pyridin-2-amine], in the data set on HCT116 cells (Homo sapiens, HCT-116, 72 h), the IC50 lay in the range of 10 to 100 nM.
Take `CNS(=O)(=O)Nc1ccc(Cc2cncc(Oc3ncc(Cl)cc3F)c2C)cn1` [Example 46, 5-[[5-[(5-chloro-3-fluoro-2-pyridyl)oxy]-4-methyl-3-pyridyl]methyl]-N-(methylsulfamoyl)pyridin-2-amine]: the “CTG % cell viability 1000 uM HCT116.20” value with HCT116 cells (HCT116 cells, 72 hours) was 82.81, % and 79.54%. For the same molecule, the IC50 in the data set with HCT116 cells (Homo sapiens, HCT-116, 72 h) is over 1000 nM; in the data set on IPC298 cells (Homo sapiens, IPC-298, 72 h), over 1000 nM. Further, the “CTG % cell viability 1000 uM IPC298.2” value in the data set with IPC298 cells (IPC298 cells, 72 hours, 1000 uM, percent cells remaining after treatment) worked out at 19.34%.
Take `CNS(=O)(=O)Nc1nccc(Cc2cncc(Nc3ccc(C4CC4)cc3F)c2C)c1F` [Example 47, 4-[[5-(4-cyclopropyl-2-fluoro-anilino)-4-methyl-3-pyridyl]methyl]-3-fluoro-N-(methylsulfamoyl)pyridin-2-amine]: the IC50 in the data set with HCT116 cells (Homo sapiens, HCT-116, 72 h) is under 10 nM; with IPC298 cells (Homo sapiens, IPC-298, 72 h), under 10 nM.
In the case of `CNS(=O)(=O)Nc1ccc(Cc2cncc(Oc3ncc(Cl)cc3F)c2C)cn1` [Example 48, 5-[[5-[(5-chloro-3-fluoro-2-pyridyl)oxy]-4-methyl-3-pyridyl]methyl]-N-(methylsulfamoyl)pyridin-2-amine], in the data set on HCT116 cells (HCT116 cells, 72 hours), the “CTG % cell viability 1000 uM HCT116.20” value is 17.49% and the IC50 is over 1000 nM. Besides, the IC50 in the data set with IPC298 cells (IPC298 cells, 72 hours) was over 1000 nM.
For the molecule `CNS(=O)(=O)Nc1nccc(Cc2cncc(Oc3ccc(Cl)cc3F)c2C)c1F` [Example 49, [(4-{[5-(4-chloro-2-fluorophenoxy)-4-methylpyridin-3-yl]methyl}-3-fluoropyridin-2-yl)sulfamoyl](methyl)amine], the IC50 with HCT116 cells (Homo sapiens, HCT-116, 72 h) is 10 to 100 nM; in the data set with IPC298 cells (Homo sapiens, IPC-298, 72 h) it was under 10 nM.
As to `CNS(=O)(=O)Nc1nccc(Cc2cncc(Cc3ccc(Cl)cc3F)c2C)c1F` [Example 50, {[4-({5-[(4-chloro-2-fluorophenyl)methyl]-4-methylpyridin-3-yl}methyl)-3-fluoropyridin-2-yl]sulfamoyl}(methyl)amine], the IC50 in the data set on HCT116 cells (Homo sapiens, HCT-116, 72 h) was 500 to 1000 nM; in the data set with IPC298 cells (Homo sapiens, IPC-298, 72 h), 10 to 100 nM.
Regarding `CNS(=O)(=O)Nc1nccc(Cc2cncc(Oc3ccc(C(F)(F)F)cc3F)c2C)c1F` [Example 51, 3-fluoro-4-[[5-[2-fluoro-4-(trifluoromethyl)phenoxy]-4-methyl-3-pyridyl]methyl]-N-(methylsulfamoyl)pyridin-2-amine], in the data set with HCT116 cells (Homo sapiens, HCT-116, 72 h), the IC50 fell in the range of 100 to 500 nM.
Take `CNS(=O)(=O)Nc1nccc(Cc2cnnc(Nc3ccc(Cl)cc3F)c2C)c1F` [Example 52, N-(4-chloro-2-fluoro-phenyl)-5-[[3-fluoro-2-(methylsulfamoylamino)-4-pyridyl]methyl]-4-methyl-pyridazin-3-amine]: the IC50 is 100 to 500 nM with HCT116 cells (Homo sapiens, HCT-116, 72 h) and under 10 nM in the data set on IPC298 cells (Homo sapiens, IPC-298, 72 h).
With `CNS(=O)(=O)Nc1nccc(Cc2cncc(Nc3ccc(Cl)cc3F)c2C)n1` [Example 53, 4-[[5-(4-chloro-2-fluoro-anilino)-4-methyl-3-pyridyl]methyl]-N-(methylsulfamoyl)pyrimidin-2-amine], in the data set on HCT116 cells (Homo sapiens, HCT-116, 72 h), the IC50 was in the range of 10 to 100 nM.
Take `CNS(=O)(=O)Nc1nccc(Cc2cncc(Oc3cccc(Cl)c3F)c2)c1F` [Example 54, 4-[[5-(3-chloro-2-fluoro-phenoxy)-3-pyridyl]methyl]-3-fluoro-N-(methylsulfamoyl)pyridin-2-amine]: the viability at 1000 µM turned out to be 81.2% in the data set on HCT116 cells (Homo sapiens, HCT-116, 72 h) and 70.1% with IPC298 cells (Homo sapiens, IPC-298, 72 h, read-out: CTG % cell viability 1000 uM IPC298.2, IPC298 cells, 72 hours, 1000 uM, percent cells remaining after treatment). Moreover, the IC50 in the data set on HCT116 cells (Homo sapiens, HCT-116, 72 h) was over 1000 nM; in the data set with IPC298 cells (Homo sapiens, IPC-298, 72 h), over 1000 nM.
Regarding `CNS(=O)(=O)Nc1nccc(Cc2cncc(Nc3ncccn3)c2C)c1F` [Example 55, N-[5-[[3-fluoro-2-(methylsulfamoylamino)-4-pyridyl]methyl]-4-methyl-3-pyridyl]pyrimidin-2-amine], in the data set on HCT116 cells (Homo sapiens, HCT-116, 72 h), the viability at 1000 µM is 80.9% and the IC50 is over 1000 nM.
As to `CNS(=O)(=O)Nc1nccc(Cc2cncc(-c3cc(Cl)ccc3F)c2C)c1F` [Example 56, [(4-{[5-(5-chloro-2-fluorophenyl)-4-methylpyridin-3-yl]methyl}-3-fluoropyridin-2-yl)sulfamoyl](methyl)amine], the IC50 in the data set with HCT116 cells (Homo sapiens, HCT-116, 72 h) is 100 to 500 nM; in the data set on IPC298 cells (Homo sapiens, IPC-298, 72 h), under 10 nM.
Take `CNS(=O)(=O)Nc1nccc(Cc2cncc(-c3cccc(Cl)c3F)c2C)c1F` [Example 57, [(4-{[5-(3-chloro-2-fluorophenyl)-4-methylpyridin-3-yl]methyl}-3-fluoropyridin-2-yl)sulfamoyl](methyl)amine]: the “CTG % cell viability 1000 uM HCT116.20” value with HCT116 cells (HCT116 cells, 72 hours) came out at 45.51%. In the data set with HCT116 cells (Homo sapiens, HCT-116, 72 h), the viability at 1000 µM turned out to be 56.8% and the IC50 was over 1000 nM. For the same molecule, in the data set on IPC298 cells (Homo sapiens, IPC-298, 72 h), the IC50 lay in the range of 10 to 100 nM.
`CNS(=O)(=O)Nc1nccc(Cc2cncc(Nc3ccc(C(C)C)cc3F)c2C)c1F` [Example 58, 3-fluoro-4-[[5-(2-fluoro-4-isopropyl-anilino)-4-methyl-3-pyridyl]methyl]-N-(methylsulfamoyl)pyridin-2-amine]: the IC50 in the data set on HCT116 cells (Homo sapiens, HCT-116, 72 h) is under 10 nM; in the data set with IPC298 cells (Homo sapiens, IPC-298, 72 h) it was under 10 nM.
Regarding `CNS(=O)(=O)Nc1nccc(Cc2cncc(-n3ccc4cc(Cl)ccc43)c2)c1F` [Example 59, [(4-{[5-(5-chloroindol-1-yl)pyridin-3-yl]methyl}-3-fluoropyridin-2-yl)sulfamoyl](methyl)amine], the IC50 in the data set on HCT116 cells (Homo sapiens, HCT-116, 72 h) is 100 to 500 nM; in the data set with IPC298 cells (Homo sapiens, IPC-298, 72 h), 10 to 100 nM.
In the same order, the values of `C#Cc1cnc(Nc2cncc(Cc3ccnc(NS(=O)(=O)NC)c3F)c2C)c(F)c1` [Example 60, 4-[[5-[(5-ethynyl-3-fluoro-2-pyridyl)amino]-4-methyl-3-pyridyl]methyl]-3-fluoro-N-(methylsulfamoyl)pyridin-2-amine] are 100 to 500 nM and under 10 nM.
For the molecule `CNS(=O)(=O)Nc1nccc(Cc2cncc(Nc3ncc(Cl)cc3F)c2C)c1F` [Example 62, 4-[[5-[(5-chloro-3-fluoro-2-pyridyl)amino]-4-methyl-3-pyridyl]methyl]-3-fluoro-N-(methylsulfamoyl)pyridin-2-amine], in the data set on HCT116 cells (Homo sapiens, HCT-116, 72 h), the viability at 1000 µM is 46.4% and the IC50 is over 1000 nM. Besides, the IC50 in the data set on IPC298 cells (Homo sapiens, IPC-298, 72 h) was 10 to 100 nM.
As to `CNS(=O)(=O)Nc1nccc(Cc2cncc(O[C@H]3CC[C@H](C)CC3)c2C)c1F` [Example 63, 3-fluoro-4-[[4-methyl-5-(4-methylcyclohexoxy)-3-pyridyl]methyl]-N-(methylsulfamoyl)pyridin-2-amine], in the data set with HCT116 cells (Homo sapiens, HCT-116, 72 h), the viability at 1000 µM turned out to be 71.5% and the IC50 is over 1000 nM. Further, the viability at 100 µM in the data set on IPC298 cells (setting [1]) is 62.4%. Besides, the IC50 in the data set on IPC298 cells (Homo sapiens, IPC-298, 72 h) is over 1000 nM.
Turning to `CNS(=O)(=O)Nc1nccc(Cc2cncc(Oc3ccc(C(F)F)cc3F)c2C)c1F` [Example 65, 4-[[5-[4-(difluoromethyl)-2-fluoro-phenoxy]-4-methyl-3-pyridyl]methyl]-3-fluoro-N-(methylsulfamoyl)pyridin-2-amine], the IC50 is 10 to 100 nM in the data set on HCT116 cells (Homo sapiens, HCT-116, 72 h) and under 10 nM in the data set with IPC298 cells (Homo sapiens, IPC-298, 72 h).
The like results for `CNS(=O)(=O)Nc1nccc(Cc2cncc(Nc3ccc(OC(F)F)cn3)c2C)c1F` [Example 66, 4-[[5-[[5-(difluoromethoxy)-2-pyridyl]amino]-4-methyl-3-pyridyl]methyl]-3-fluoro-N-(methylsulfamoyl)pyridin-2-amine] were, in that order, 10 to 100 nM and under 10 nM.
As to `CNS(=O)(=O)Nc1nccc(Cc2cncc(Nc3ccc(Cl)cc3F)c2Cl)c1F` [Example 67, 4-chloro-N-(4-chloro-2-fluorophenyl)-5-({3-fluoro-2-[(methylsulfamoyl)amino]pyridin-4-yl}methyl)pyridin-3-amine], the IC50 with HCT116 cells (Homo sapiens, HCT-116, 72 h) is 10 to 100 nM; in the data set on IPC298 cells (Homo sapiens, IPC-298, 72 h), under 10 nM.
In the same order, the values of `C=CCNc1cncc(Cc2ccnc(NS(=O)(=O)NC)c2F)c1C` [Example 68, 4-[[5-(allylamino)-4-methyl-3-pyridyl]methyl]-3-fluoro-N-(methylsulfamoyl)pyridin-2-amine] are 500 to 1000 nM and over 1000 nM.
Take `CNS(=O)(=O)Nc1nccc(Cc2cncc(Nc3ccc(OC(F)(F)F)cn3)c2C)c1F` [Example 69, 3-fluoro-N-(methylsulfamoyl)-4-[[4-methyl-5-[[5-(trifluoromethoxy)-2-pyridyl]amino]-3-pyridyl]methyl]pyridin-2-amine]: in the data set on HCT116 cells (Homo sapiens, HCT-116, 72 h), the viability at 1000 µM came out at 60.4% and the IC50 is over 1000 nM. Moreover, the IC50 in the data set with IPC298 cells (Homo sapiens, IPC-298, 72 h) fell in the range of 10 to 100 nM.

The values above are taken from patent US20250288571A1 (Nested Therapeutics, Inc., priority 2024, published 2025).
